Series [1] concerns Ehrlich ascites carcinoma. Kind of series: Preventive effect against the growth of Ehrlich ascites tumor (Method A). Format: in vivo, mice (female ICR). Particulars: for inhibition in vivo at 3.12 mg/kg: 3.12 mg/kg/day i.p.; for inhibition in vivo at 6.25 mg/kg: 6.25 mg/kg/day i.p.; for inhibition in vivo at 12.5 mg/kg: 12.5 mg/kg/day i.p.; for inhibition in vivo at 1.56 mg/kg: 1.56 mg/kg/day i.p.; for inhibition in vivo at 200 mg/kg: 200 mg/kg/day i.p.; for minimal effective dose: minimum dose with 100% inhibition of ascites tumor, unit from dose column, read-out: MED (Minimum Effective Dose); for inhibition in vivo at 0.78 mg/kg: 0.78 mg/kg/day i.p.; for inhibition in vivo at 0.09 mg/kg: 0.09 mg/kg/day i.p.; for inhibition in vivo at 0.19 mg/kg: 0.19 mg/kg/day i.p.; for inhibition in vivo at 0.39 mg/kg: 0.39 mg/kg/day i.p.; for inhibition in vivo at 25 mg/kg: 25 mg/kg/day i.p. On the procedure: (§1) (A) Preventive effect against the growth of Ehrlich ascites tumor:
(§2) 10^6 tumor cells of Ehrlich ascites carcinoma were inoculated intraperitoneally into a group of five femal mice (ICR mice, body weight: 19-23 g). A test compound was dissolved in a physiological saline solution [In the case where CCNU was employed as the test compound, said compound was suspended in a physiological saline solution containing 0.1% NIKKOL HCO-60 (trademark; a surface active agent manufactured by Nikko Chemicals Co. Ltd.)] and administered intraperioneally to the mice. The administration of the test compound was begun 24 hours after the inoculation of the tumor cells and performed once a day for 5 days. The volume of ascites in the treated mice were measured after 7 days of the experiment.
(§3) ^a T = the average volume of ascites in the treated mice
(§4) C = the average volume of ascites in the untreated mice (control group of
(§5) 100% inhibition for the growth of Ehrlich ascites tumor in mice without
(§6) causing the death of said mice)
(§7) 100% inhibition for the growth of said ascites tumor)
(§8) ^e Therapeutic index = MTD/MED
(§9) *the number of mice died/the number of mice used

Assay in series [2]: as above
The series is classed as in vivo, mice (female ICR). The following applies: mouse, in vivo, ip; maximum dose with 100% inhibition of Ehrlich ascites tumor without causing death; unit from dose column; read-out: MTD (Maximum Tolerated Dose). As to the method: as §1, §2, §3, §4, §5, §6, §7, §8, §9

For another series, the system named is Leukemia L-1210. Briefly: Effect on the life span of mice implanted with leukemic cells of L-1210 (Method B). The series is classed as in vivo, mice (male BDF1). Particulars: Mus musculus, L1210, ip, once a day for 5 days; for ILS at 6.25 mg/kg / responders at 6.25 mg/kg: 6.25 mg/kg/day i.p.; for ILS at 25 mg/kg / responders at 25 mg/kg: 25 mg/kg/day i.p.; for ILS at 50 mg/kg / responders at 50 mg/kg: 50 mg/kg/day i.p. As to the method:
(B) Effect on the life span of mice implanted with leukemic cells of L-1210:
10^5 leukemic cells of L-1210 were inoculated intraperitoneally into a group of four or six male mice (BDF1 mice, body weight: 19-23 g). A test compound was dissolved in a physiological saline solution and administered intraperitoneally to the mice. The administration of the test compound was begun 24 hours after the inoculation of the leukemic cells and performed once a day for 5 days. The survival days of the treated mice were observed.
^a T = the mean survival days of the treated mice
C = the mean survival days of the untreated mice (control group of mice)
^b ILS(Increase in Life Span) =-
^c 60day survivors = the number of mice survived for 60 days/the

Where [3] appears, read: 100 mg/kg/day i.p., once a day for 5 days.
The mark [4] stands for this setting: Mus musculus, Ehrlich, ip, 168 h, once a day for 5 days, read-out: Inhibition ratio.
Setting [5] is: Mus musculus, Ehrlich, ip, 168 h, 50 mg/kg/day i.p., once a day for 5 days, read-out: Inhibition ratio.
Where [6] appears, read: 400 mg/kg/day i.p., once a day for 5 days.
The mark [7] stands for this setting: Mus musculus, Ehrlich, ip, 168 h.
Setting [8] is: 120 h, read-out: ILS (Increase in Life Span).
Where [9] appears, read: 1440 h, read-out: 60-day survivors (mice survived for 60 days/mice used) (converted).

`O=NN(CCCl)C(=O)NC1CCCCC1` [CCNU, 1-(2-chloroethyl)-1-nitroso-3-cyclohexylurea, reference compound]: the “Toxic (number of mice died/number of mice used)” value in series [1] (setting [3]) was 5/5. In series [1] (setting [4]), the inhibition in vivo at 3.12 mg/kg was 21.1%, the inhibition in vivo at 6.25 mg/kg stood at 33.3% and the inhibition in vivo at 12.5 mg/kg worked out at 100%. Moreover, the inhibition in vivo at 50 mg/kg in series [1] (setting [5]) is 100%. Moreover, the MTD (usually the largest dose that counted as tolerated) at 168 h in series [2] was 50 mg/kg/day.

In the case of `COC(C)CN(C(=O)N(CCCl)N=O)C1O[C@H](CO)[C@@H](O[C@H]2O[C@H](CO)[C@@H](O)[C@H](O)[C@H]2O)[C@H](O)[C@H]1O` (stereo partly drawn) [Compound 1, 1-(2-chloroethyl)-1-nitroso-3-(2-methoxy-n-propyl)-3-[O-α-D-glucopyranosyl-(1→4)-D-glucopyranosyl]urea], the “Toxic (number of mice died/number of mice used)” value in series [1] (setting [6]) is recorded as 4/5. In series [1], the “Therapeutic index (MTD/MED)” value is given as 64. In series [1] (setting [4]), the inhibition in vivo at 1.56 mg/kg is 4.4%, the inhibition in vivo at 3.12 mg/kg worked out at 100%, the inhibition in vivo at 12.5 mg/kg is 100% and the inhibition in vivo at 200 mg/kg was found to be 100%. The inhibition in vivo at 50 mg/kg in series [1] (setting [5]) came out at 100%. Also, the minimal effective dose in series [1] (setting [7]) stood at 3.12 mg/kg/day. The MTD at 168 h in series [2] is 200 mg/kg/day.

`COCC(C)N(C(=O)N(CCCl)N=O)C1O[C@H](CO)[C@@H](O[C@H]2O[C@H](CO)[C@@H](O)[C@H](O)[C@H]2O)[C@H](O)[C@H]1O` (stereo partly drawn) [Compound 2, 1-(2-chloroethyl)-1-nitroso-3-(1-methyl-2-methoxy-ethyl)-3-[O-α-D-glucopyranosyl-(1→4)-D-glucopyranosyl]urea]: in the series on Leukemia L-1210 (setting [8]), the ILS (in general, the gain in survival time of treated over control animals, in per cent) at 6.25 mg/kg was determined as 85.7%; the ILS at 25 mg/kg is more than 604%; the ILS at 50 mg/kg is more than 757%. In addition, the increase in lifespan (ILS) at 100 mg/kg in the series with Leukemia L-1210 (120 h, 100 mg/kg/day i.p., read-out: ILS (Increase in Life Span)) was more than 757%. In the series with Leukemia L-1210 (setting [9]), the responders at 6.25 mg/kg is 0%, the responders at 25 mg/kg was 75% and the responders at 50 mg/kg was 100%. In addition, in the series on Leukemia L-1210 (1440 h, 100 mg/kg/day i.p., read-out: 60-day survivors (mice survived for 60 days/mice used) (converted)), the responders at 100 mg/kg was 100%. The “Toxic (number of mice died/number of mice used)” value in series [1] (setting [6]) is 2/5. Besides, the “therapeutic index (M.T.D./M.E.D.) relative to that of GANU” value in series [1] (Ehrlich ascites tumor, greater than that of GANU) worked out at 4 times. Further, the “Therapeutic index (MTD/MED)” value in series [1] is recorded as 128. Further, in series [1] (setting [4]), the inhibition in vivo at 0.78 mg/kg was -8.6%, the inhibition in vivo at 1.56 mg/kg is 100%, the inhibition in vivo at 3.12 mg/kg was determined as 100% and the inhibition in vivo at 12.5 mg/kg came out at 100%. Besides, the inhibition in vivo at 200 mg/kg in series [1] (setting [4]) worked out at 100%. For the same compound, the inhibition in vivo at 50 mg/kg in series [1] (setting [5]) was determined as 100%. Further, the minimal effective dose in series [1] (setting [7]) stood at 1.56 mg/kg/day. For the same compound, the MTD at 168 h in series [2] is 200 mg/kg/day.

`COCCN(C(=O)N(CCCl)N=O)C1OC[C@H](O)[C@H](O)[C@H]1O` (stereo partly drawn) [Compound 3, 1-(2-chloroethyl)-1-nitroso-3-(2-methoxyethyl)-3-(L-arabinopyranosyl)urea]: in the series on Leukemia L-1210 (setting [8]), the ILS at 6.25 mg/kg turned out to be 87.5%, the ILS at 25 mg/kg was more than 733% and the ILS at 50 mg/kg was more than 615%. In the series with Leukemia L-1210 (120 h, 12.5 mg/kg/day i.p., read-out: ILS (Increase in Life Span)), the ILS at 12.5 mg/kg was more than 556%. Besides, in the series on Leukemia L-1210 (setting [9]), the responders at 6.25 mg/kg is 0%, the responders at 25 mg/kg is 100% and the responders at 50 mg/kg is 83.3%. Also, the responders at 12.5 mg/kg in the series with Leukemia L-1210 (1440 h, 12.5 mg/kg/day i.p., read-out: 60-day survivors (mice survived for 60 days/mice used) (converted)) is 66.7%. The “Toxic (number of mice died/number of mice used)” value in series [1] (setting [3]) is on record as 3/5. In addition, the “Therapeutic index (MTD/MED)” value in series [1] is 128. Moreover, in series [1] (setting [4]), the inhibition in vivo at 0.09 mg/kg was 13.5%, the inhibition in vivo at 0.19 mg/kg is 55.6%, the inhibition in vivo at 0.39 mg/kg was 100% and the inhibition in vivo at 0.78 mg/kg came out at 100%. In series [1] (setting [4]), the inhibition in vivo at 3.12 mg/kg was 100% and the inhibition in vivo at 12.5 mg/kg is 100%. Further, the inhibition in vivo at 50 mg/kg in series [1] (setting [5]) came out at 100%. Besides, the minimal effective dose in series [1] (setting [7]) amounted to 0.39 mg/kg/day. For the same compound, the MTD at 168 h in series [2] was determined as 50 mg/kg/day.

For the compound `COCCN(C(=O)N(CCCl)N=O)C1OC[C@@H](O)[C@H](O)[C@H]1O` (stereo partly drawn) [Compound 10, 1-(2-chloroethyl)-1-nitroso-3-(2-methoxyethyl)-3-(D-xylopyranosyl)urea], the “Toxic (number of mice died/number of mice used)” value in series [1] (50 mg/kg/day i.p., once a day for 5 days) is reported as 2/5. For the same compound, the “Therapeutic index (MTD/MED)” value in series [1] is 64. The inhibition in vivo at 0.04 mg/kg in series [1] (Mus musculus, Ehrlich, ip, 168 h, 0.04 mg/kg/day i.p., once a day for 5 days, read-out: Inhibition ratio) amounted to 2.1%. In addition, in series [1] (setting [4]), the inhibition in vivo at 0.09 mg/kg came to 25%, the inhibition in vivo at 0.19 mg/kg stood at 89.6%, the inhibition in vivo at 0.39 mg/kg came to 100% and the inhibition in vivo at 1.56 mg/kg is 100%. In addition, the inhibition in vivo at 25 mg/kg in series [1] (setting [4]) came to 100%. Moreover, the inhibition in vivo at 6.23 mg/kg in series [1] (Mus musculus, Ehrlich, ip, 168 h, 6.23 mg/kg/day i.p., once a day for 5 days, read-out: Inhibition ratio) amounted to 100%. Moreover, the minimal effective dose in series [1] (setting [7]) turned out to be 0.39 mg/kg/day. Besides, the MTD at 168 h in series [2] turned out to be 25 mg/kg/day.

Turning to `COCCN(C(=O)N(CCCl)N=O)C1O[C@H](CO)[C@@H](O)[C@H](O)[C@@H]1O` (stereo partly drawn) [Compound 11, 1-(2-chloroethyl)-1-nitroso-3-(2-methoxyethyl)-3-(D-mannopyranosyl)urea], the “Toxic (number of mice died/number of mice used)” value in series [1] (800 mg/kg/day i.p., once a day for 5 days) is reported as 5/5. Further, in series [1], the “Therapeutic index (MTD/MED)” value came out at 64. Further, in series [1] (setting [4]), the inhibition in vivo at 1.56 mg/kg turned out to be 14%, the inhibition in vivo at 3.12 mg/kg was found to be 64%, the inhibition in vivo at 6.25 mg/kg was 100% and the inhibition in vivo at 25 mg/kg came out at 100%. Further, in series [1] (Mus musculus, Ehrlich, ip, 168 h, 100 mg/kg/day i.p., once a day for 5 days, read-out: Inhibition ratio), the inhibition in vivo at 100 mg/kg is 100%. Further, in series [1] (Mus musculus, Ehrlich, ip, 168 h, 400 mg/kg/day i.p., once a day for 5 days, read-out: Inhibition ratio), the inhibition in vivo at 400 mg/kg was 100%. Further, the minimal effective dose in series [1] (setting [7]) worked out at 6.25 mg/kg/day. Moreover, the MTD at 168 h in series [2] worked out at 400 mg/kg/day.
